Reference: PMC4364779, “IMD-4690, a Novel Specific Inhibitor for Plasminogen Activator Inhibitor-1, Reduces Allergic Airway Remodeling in a Mouse Model of Chronic Asthma via Regulating Angiogenesis and Remodeling-Related Mediators” (PLoS ONE, 2015)

Tests used:
[1] = target: binding of tPA and PAI-1 (Homo sapiens, UniProt P05121); assay: Inhibition of tPA/PAI-1 complex formation (SDS-PAGE, silver staining, densitometry); details: recombinant PAI-1 + IMD-4690 in PBS 37°C 5 min, then tPA 37°C 5 min; tPA/PAI-1 complex band densitometry
Description: Fig 1 Schedule of in vivo experiments and biological activity of IMD-4690. (A) Protocols for the mouse experiments. (B) Inhibitory effects of IMD-4690 on the binding of tPA and PAI-1. The recombinant PAI-1 and IMD-4690 were mixed and incubated in PBS at 37°C for 5 min. Then tPA was added. After incubation at 37°C for 5 min, samples were applied for 10% SDS-PAGE and visualized with a silver staining. The bands of tPA/PAI-1 complex were quantified by a densitometry, and calculated IC50.
A synthetic PAI-1 inhibitor, IMD-4690, 2-[[3-(4-tert-Butylphenoxy)-4'- (trifluoromethoxy) [1,1'-biphenyl]-4-yl]oxy] acetic acid, was molecularly designed, synthesized. IMD-4690 inhibited the binding of tPA and PAI-1 at the IC50 of 8 μM (Fig. 1B).

[2] = test system: chronic allergen exposure model of bronchial asthma in mice; assay: Lung resistance (RL) by restrained whole body plethysmography, chronic Dp asthma model; format: in vivo, mouse; details: at 25 and 50 mg/mL of Mch, day 70, 10 mg/kg i.p., vs Dp/CMC mice
Description: (§1) All mice were sensitized on days 0 and 7 by intraperitoneal injections of 10 μg of Dp dissolved in 500 μL saline and mixed with 1mg of Alum (Sigma-Aldrich Japan). Dp-sensitized mice were challenged intranasally with 10 μg (10 μL) Dp in 70 μL saline on alternate days, 3 days per week, from days 14 to 67. The mice were also treated intraperitoneally with IMD-4690 (10 mg/kg) (Dp/IMD group) or CMC alone (Dp/CMC group) at the same day with Dp challenge. As a control, mice were challenged with saline and given CMC during this period (control/CMC group) (Fig. 1A). Each experiment was performed using six mice per group.
Seventy-two hours after the final challenge (day 70), lung resistance (RL) was measured by restrained whole body plethysmography (Buxco Electronics). Mice were anesthetized by 6 mg/mL 2,2,2-tribromoethanol with 2-methyl-2-butanol. Then mice were tracheostomized and cannulated with a 19-gauge tracheostomy tube, and were placed in the chamber for plethysmography and mechanically ventilated. Aerosolized β-methacholine (Mch) was administered by an in-line aerosol delivery system at different concentrations (6.25, 12.5, 25, and 50 mg/mL). After each Mch challenge, data were continuously collected, and values of RL were taken to express the changes in these functional parameters. The data were expressed as the percentage change from baseline RL obtained after inhalation of saline.

[3] = test system: chronic allergen exposure model of bronchial asthma in mice; assay: Serum IgE (ELISA), chronic Dp asthma model; format: in vivo, mouse; details: 10 mg/kg i.p., vs Dp/CMC mice
Description: as §1
Protein concentrations were determined by the BCA method (Pierce, Rockford, IL, USA). Cytokines, growth factors, enzymes, and serum IgE were determined using commercial ELISA kits. […]

Chain of binding of tPA and PAI-1 (P05121 24-402): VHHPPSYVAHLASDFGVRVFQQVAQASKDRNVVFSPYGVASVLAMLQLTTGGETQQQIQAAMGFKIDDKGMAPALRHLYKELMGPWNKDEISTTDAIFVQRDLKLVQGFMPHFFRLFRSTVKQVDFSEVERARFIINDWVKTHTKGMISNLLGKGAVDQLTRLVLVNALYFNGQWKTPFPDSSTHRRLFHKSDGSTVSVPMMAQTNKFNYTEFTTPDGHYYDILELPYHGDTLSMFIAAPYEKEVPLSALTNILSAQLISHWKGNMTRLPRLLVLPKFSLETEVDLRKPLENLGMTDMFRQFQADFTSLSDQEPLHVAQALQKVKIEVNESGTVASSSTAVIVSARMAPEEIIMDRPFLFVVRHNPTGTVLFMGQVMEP

- IC50 [1]: 8 µM
Structure (SMILES): CC(C)(C)c1ccc(Oc2cc(-c3ccc(OC(F)(F)F)cc3)ccc2OCC(=O)O)cc1 [IMD-4690, 2-[[3-(4-tert-Butylphenoxy)-4'-(trifluoromethoxy) [1,1'-biphenyl]-4-yl]oxy] acetic acid]
- Airway resistance (RL) [2]: significantly reduced
- Serum IgE [3]: significantly decreased
